Experimental data from US12172959B2, “Mono- or di-substituted indole derivatives as dengue viral replication inhibitors” (priority 2015, dated 2024).

Experiments:
DENV-2 16681 strain = test: DENV-2 antiviral assay (eGFP fluorescence, Vero cells); assay type: cell-based, Dengue virus; conditions: DENV-2 16681 eGFP, MOI 0.5, 3 days
Experimental: The antiviral activity of all the compounds of the invention was tested against the DENV-2 16681 strain which was labeled with enhanced green fluorescent protein (eGPF; Table 1). The culture medium consists of minimal essential medium supplemented with 2% of heat-inactivated fetal calf serum, 0.04% gentamycin (50 mg/mL) and 2 mM of L-glutamine. Vero cells, obtained from ECACC, were suspended in culture medium and 25 μL was added to 384-well plates (2500 cells/well), which already contain the antiviral compounds. Typically, these plates contain a 5-fold serial dilution of 9 dilution steps of the test compound at 200 times the final concentration in 100% DMSO (200 nL). […] Finally, each plate contains wells which are assigned as virus controls (containing cells and virus in the absence of compound), cell controls (containing cells in the absence of virus and compound) and medium controls (containing medium in the absence of cells, virus and compounds). To the wells assigned as medium control, 25 μL of culture medium was added instead of Vero cells. Once the cells were added to the plates, the plates were incubated for 30 minutes at room temperature to allow the cells to distribute evenly within the wells. Next, the plates were incubated in a fully humidified incubator (37° C., 5% CO2) until the next day. Then, DENV-2 strain 16681, labeled with eGFP, was added at a multiplicity of infection (MOI) of 0.5. Therefore, 15 μL of virus suspension was added to all the wells containing test compound and to the wells assigned as virus control. In parallel, 15 μL of culture medium was added to the medium and cell controls. Next, the plates were incubated for 3 days in a fully humidified incubator (37° C., 5% CO2). At the day of the read out, the eGFP fluorescence was measured using an automated fluorescence microscope at 488 nm (blue laser). Using an in-house LIMS system, inhibition dose response curves for each compound were calculated and the half maximal effective concentration (EC50) was determined. Therefore, the percent inhibition (I) for every test concentration is calculated using the following formula: I=100*(ST−SCC)/(SVC−SCC); ST, SCC and SVC are the amount of eGFP signal in the test compound, cell control and virus control wells, respectively. The EC50 represents the concentration of a compound at which the virus replication is inhibited with 50%, as measured by a 50% reduction of the eGFP fluorescent intensity compared to the virus control. The EC50 is calculated using linear interpolation.

Vero cells = conditions: African green monkey
in vitro = assay type: cell-based; conditions: African green monkey, CC50
Experimental: (§1) The antiviral activity of the compounds of the invention was tested against DENV-1 strain TC974#666 (NCPV; Table 6), DENV-2 strain 16681 (Table 7), DENV-3 strain H87 (NCPV; Table 8) and DENV-4 strains H241 (NCPV; Table 9A) and SG/06K2270DK1/2005 (Eden; Table 9B) in a RT-qPCR assay. Therefore, Vero cells were infected with either DENV-1, or -2, or -3, or -4 in the presence or absence of test compounds. At day 3 post-infection, the cells were lysed and cell lysates were used to prepare cDNA of both a viral target (the 3′UTR of DENV; Table 2) and a cellular reference gene (β-actin, Table 2). Subsequently, a duplex real time PCR was performed on a Lightcycler480 instrument. The generated Cp value is inversely proportional to the amount of RNA expression of these targets. Inhibition of DENV replication by test compound results in a shift of Cp's for the 3′UTR gene. On the other hand, if a test compound is toxic to the cells, a similar effect on β-actin expression will be observed. The comparative ΔΔCp method is used to calculate EC50, which is based on the relative gene expression of the target gene (3′UTR) normalized with the cellular housekeeping gene (β-actin).
(§2) The culture medium consisted of minimal essential medium supplemented with 2% of heat-inactivated fetal calf serum, 0.04% gentamycin (50 mg/mL) and 2 mM of L-glutamine. Vero cells, obtained from ECACC, were suspended in culture medium and 75 μL/well was added in 96-well plates (10000 cells/well), which already contain the antiviral compounds. […] In addition, each plate contains wells which are assigned as virus controls (containing cells and virus in the absence of compound) and cell controls (containing cells in the absence of virus and compound). Once the cells were added in the plates, the plates were incubated in a fully humidified incubator (37° C., 5% CO2) until the next day. Dengue viruses serotype-1, 2, 3 and 4 were diluted in order to obtain a Cp of ˜22-24 in the assay. Therefore, 25 μL of virus suspension was added to all the wells containing test compound and to the wells assigned as virus control. In parallel, 25 μL of culture medium was added to the cell controls. Next, the plates were incubated for 3 days in a fully humidified incubator (37° C., 5% CO2). After 3 days, the supernatant was removed from the wells and the cells were washed twice with ice-cold PBS (˜100 μL). The cell pellets within the 96-well plates were stored at −80° C. for at least 1 day. Next, RNA was extracted using the Cells-to-CT™ lysis kit, according to the manufacturer's guideline (Life Technologies). The cell lysates can be stored at −80° C. or immediately used in the reverse transcription step.
(§3) Using the LightCycler software and an in-house LIMS system, dose response curves for each compound were calculated and the half maximal effective concentration (EC50) and the half maximal cytotoxic concentration (CC50) were determined.

DENV-1 strain TC974#666 = test: Tetravalent RT-qPCR assay Protocol A, serotype 1; assay type: cell-based; conditions: Dengue virus, DENV1, 72 h, RT-qPCR serotype 1 TC974#666, Vero cells, day 3
Experimental: as §1, §2
(§4) In preparation of the reverse transcription step, mix A (table 3A) was prepared and 7.57 μL/well was dispensed in a 96-well plate. After addition of 5 μL of the cell lysates, a five minute denaturation step at 75° C. was performed (table 3B). Afterwards, 7.43 μL of mix B was added (table 3C) and the reverse transcription step was initiated (table 3D) to generate cDNA.
(§5) Finally, a RT-qPCR mix was prepared, mix C (table 4A), and 22.02 μL/well was dispensed in 96-well LightCycler qPCR plates to which 3 μL of cDNA was added and the qPCR was performed according to the conditions in table 4B on a LightCycler 480.
as §3

DENV-4 strain H241 = test: Tetravalent RT-qPCR assay Protocol A, serotype 4 H241; assay type: cell-based; conditions: Dengue virus, DENV4, 72 h; Protocol A, RT-qPCR serotype 4 H241, Vero cells, day 3; read-out: EC50
Experimental: as §1, §2, §4, §5, §3

DENV-2 strain 16681 = test: Tetravalent RT-qPCR assay Protocol A, serotype 2; assay type: cell-based; conditions: Dengue virus, DENV2, 72 h; Protocol A, RT-qPCR serotype 2 16681, Vero cells, day 3; read-out: EC50
Experimental: as §1, §2, §4, §5, §3

DENV-3 strain H87 = test: Tetravalent RT-qPCR assay Protocol A, serotype 3; assay type: cell-based; conditions: Dengue virus, DENV3, 72 h, RT-qPCR serotype 3 H87, Vero cells, day 3
Experimental: as §1, §2, §4, §5, §3

SMILES	CC50 (Vero cells) [nM]	EC50 (DENV-2 16681 strain) [nM]	further results
COc1cc(NC(C(=O)c2c[nH]c3cc(F)ccc23)c2ccc(Cl)cc2OC)cc(S(C)(=O)=O)c1 (racemic) [Compound 1, 2-(4-chloro-2-methoxyphenyl)-1-(6-fluoro-1H-indol-3-yl)-2-((3-methoxy-5-(methylsulfonyl)phenyl)amino)ethanone]	5500	–	EC50 (DENV-2 16681 strain; Dengue virus, DENV2, Vero, 72 h): 0.52 nM
COc1cc(NC(C(=O)c2c[nH]c3cc(F)ccc23)c2ccc(Cl)cc2OC)cc(S(C)(=O)=O)c1 (single isomer, unassigned) [Compound 1B, 2-(4-chloro-2-methoxyphenyl)-1-(6-fluoro-1H-indol-3-yl)-2-((3-methoxy-5-(methylsulfonyl)phenyl)amino)ethanone]	6500	12	–
COc1cc(NC(C(=O)c2c[nH]c3c(C)c(F)ccc23)c2ccc(Cl)cc2OC)cc(S(C)(=O)=O)c1 (single isomer, unassigned) [Compound 2B, 2-(4-chloro-2-methoxyphenyl)-1-(6-fluoro-7-methyl-1H-indol-3-yl)-2-((3-methoxy-5-(methylsulfonyl)phenyl)amino)ethanone]	7400	26	–
COc1cc(NC(C(=O)c2c[nH]c3cc(OC)ccc23)c2ccc(Cl)cc2OC)cc(S(C)(=O)=O)c1 (single isomer, unassigned) [Compound 3B, 2-(4-chloro-2-methoxyphenyl)-1-(6-methoxy-1H-indol-3-yl)-2-((3-methoxy-5-(methylsulfonyl)phenyl)amino)ethanone]	> 9700	3.8	–
COc1cc(NC(C(=O)c2c[nH]c3cc(OC)c(C)cc23)c2ccc(Cl)cc2OC)cc(S(C)(=O)=O)c1 (single isomer, unassigned) [Compound 4B, 2-(4-chloro-2-methoxyphenyl)-2-((3-methoxy-5-(methyl-sulfonyl)phenyl)amino)-1-(6-methoxy-5-methyl-1H-indol-3-yl)ethanone]	12000	36	–
COc1cc(NC(C(=O)c2c[nH]c3cc(OC)c(F)cc23)c2ccc(Cl)cc2OC)cc(S(C)(=O)=O)c1 (single isomer, unassigned) [Compound 5B, 2-(4-chloro-2-methoxyphenyl)-1-(5-fluoro-6-methoxy-1H-indol-3-yl)-2-((3-methoxy-5-(methylsulfonyl)phenyl)amino)ethanone]	13000	68	–
COc1cc(NC(C(=O)c2c[nH]c3c(C)c(OC)ccc23)c2ccc(Cl)cc2OC)cc(S(C)(=O)=O)c1 (single isomer, unassigned) [Compound 6B, 2-(4-chloro-2-methoxyphenyl)-2-((3-methoxy-5-(methyl-sulfonyl)phenyl)amino)-1-(6-methoxy-7-methyl-1H-indol-3-yl)ethanone]	11000	19	–
COc1cc(NC(C(=O)c2c[nH]c3cc(F)c(C)cc23)c2ccc(Cl)cc2OC)cc(S(C)(=O)=O)c1 (single isomer, unassigned) [Compound 7A, 2-(4-chloro-2-methoxyphenyl)-1-(6-fluoro-5-methyl-1H-indol-3-yl)-2-((3-methoxy-5-(methylsulfonyl)phenyl)amino)ethanone]	6800	13	–
COc1cc(NC(C(=O)c2c[nH]c3cc(F)c(C)cc23)c2ccc(Cl)cc2OC)cc(S(C)(=O)=O)c1 (single isomer, unassigned) [Compound 7B, 2-(4-chloro-2-methoxyphenyl)-1-(6-fluoro-5-methyl-1H-indol-3-yl)-2-((3-methoxy-5-(methylsulfonyl)phenyl)amino)ethanone]	3200	0.2	CC50 at 3 days (in vitro): 2200 nM; EC50 (DENV-1 strain TC974#666): 0.4 nM; EC50 (DENV-4 strain H241): 44 nM; EC50 (DENV-2 strain 16681): 0.17 nM; EC50 (DENV-3 strain H87): 7.8 nM
COc1cc(NC(C(=O)c2c[nH]c3ccc(C(F)(F)F)cc23)c2ccc(Cl)cc2OC)cc(S(C)(=O)=O)c1 (single isomer, unassigned) [Compound 8A, 2-(4-chloro-2-methoxyphenyl)-2-((3-methoxy-5-(methyl-sulfonyl)phenyl)amino)-1-(5-(trifluoromethyl)-1H-indol-3-yl)ethanone]	7400	3	–
COc1cc(NC(C(=O)c2c[nH]c3ccc(OC(F)(F)F)cc23)c2ccc(Cl)cc2OC)cc(S(C)(=O)=O)c1 (single isomer, unassigned) [Compound 9B, 2-(4-chloro-2-methoxyphenyl)-2-((3-methoxy-5-(methyl-sulfonyl)phenyl)amino)-1-(5-(trifluoromethoxy)-1H-indol-3-yl)ethanone]	6200	3.8	–
COc1cc(NC(C(=O)c2c[nH]c3cc(OC)c(OC(F)(F)F)cc23)c2ccc(Cl)cc2OC)cc(S(C)(=O)=O)c1 (single isomer, unassigned) [Compound 10B, 2-(4-chloro-2-methoxyphenyl)-2-((3-methoxy-5-(methylsulfonyl)phenyl)amino)-1-(6-methoxy-5-(trifluoromethoxy)-1H-indol-3-yl)ethanone]	9800	3.9	–
COc1cc(NC(C(=O)c2c[nH]c3c(C)cc(OC(F)(F)F)cc23)c2ccc(Cl)cc2OC)cc(S(C)(=O)=O)c1 (single isomer, unassigned) [Compound 11B, 2-(4-chloro-2-methoxyphenyl)-2-((3-methoxy-5-(methylsulfonyl)phenyl)amino)-1-(7-methyl-5-(trifluoromethoxy)-1H-indol-3-yl)ethanone]	9200	4.1	–
